Experimental data from patent US5036059A, “1,4-Dihydropyridine-3-carboxylate derivatives” (Nippon Shinyaku Company, Limited, priority 1984, dated 1991).

Tests used:
[1] = test system: spontaneously hypertensive rats; test: Hypotensive action in spontaneously hypertensive rats, systolic arterial blood pressure by tail plethysmography, oral; format: in vivo
Protocol: (§1) Hypotensive action of diltiazem (which is a known hypotensive drug) measured by the same method at the doses of 3, 10 and 30 mg/kg were 0, 11.2 and 33.0%, respectively. Hypotensive action of the compound of Example 4 which is one of the most representative compounds of this invention was tested using spontaneously hypertensive rats and was compared with those of Nifedipine and Diltiazem hydrochloride. The method applied was that the drugs were orally given to the rats of which systolic arterial blood pressure were higher than 180 mmHg when it was measured plethysmographically using tail arteries. (Table 3)
Doses in mg/kg (p.o.) are as follows: *0.3 (1.0); **1.0 (3.0); ***30.

[2] = test system: rats (with normal blood pressure); test: Hypotensive action, mean blood pressure of femoral artery in unanesthetized normotensive rats, oral; format: in vivo; settings: Rattus norvegicus, read-out: % Decreases in Mean Blood Pressure [at peak effect]
Protocol: Blood pressure of femoral artery of rats (with normal blood pressure) under unanesthetized condition was measured directly using a pressure tranducer.
The present invention compounds were given orally at doses of 1, 3 and 10 mg/kg, and changes in blood pressure were continuously recorded. Percent decreases of mean blood pressure at the peak effect were calculated. The maximum changes in mean blood pressure (%) were shown as "hypotensive action" (Table 2).
as §1

[3] = 0.5 hr after administration, 1.0 mg/kg p.o.
[4] = 1 hr after administration, 1.0 mg/kg p.o.
[5] = 2 hr after administration, 1.0 mg/kg p.o.
[6] = 3 hr after administration, 1.0 mg/kg p.o.
[7] = 5 hr after administration, 1.0 mg/kg p.o.
[8] = 8 hr after administration, 1.0 mg/kg p.o.
[9] = 12 hr after administration, 1.0 mg/kg p.o.
[10] = before administration, 1.0 mg/kg p.o.

With `COC(=O)C1=C(C)NC(C)=C(P2(=O)OCCCO2)C1c1ccccc1[N+](=O)[O-]` (stereo not shown) [Example 4, Methyl 2,6-dimethyl-4-(2-nitrophenyl)-5-(2-oxo-1,3,2-dioxaphosphorinan-2-yl)-1,4-dihydropyridine-3-carboxylate] the “systolic arterial blood pressure” value ([1]; 0.5 hr after administration, 0.3 mg/kg p.o.) was 126.0 ± 3.9, the “systolic arterial blood pressure” value [1, 3] was 87.7 ± 4.9 and the “systolic arterial blood pressure” value ([1]; 1 hr after administration, 0.3 mg/kg p.o.) was 124.0 ± 3.3. The “systolic arterial blood pressure” value [1, 4] was 90.2 ± 6.3, the “systolic arterial blood pressure” value ([1]; 2 hr after administration, 0.3 mg/kg p.o.) was 134.2 ± 4.3 and the “systolic arterial blood pressure” value [1, 5] was 103.2 ± 7.3. The “systolic arterial blood pressure” value ([1]; 3 hr after administration, 0.3 mg/kg p.o.) was 152.5 ± 4.0, the “systolic arterial blood pressure” value [1, 6] was 133.3 ± 5.3 and the “systolic arterial blood pressure” value ([1]; 5 hr after administration, 0.3 mg/kg p.o.) was 156.8 ± 8.3. For the same compound, the “systolic arterial blood pressure” value [1, 7] was 150.7 ± 7.7, the “systolic arterial blood pressure” value ([1]; 8 hr after administration, 0.3 mg/kg p.o.) was 158.3 ± 7.2 and the “systolic arterial blood pressure” value [1, 8] was 152.8 ± 6.5. The “systolic arterial blood pressure” value ([1]; 12 hr after administration, 0.3 mg/kg p.o.) was 170.7 ± 5.4, the “systolic arterial blood pressure” value [1, 9] was 165.3 ± 6.1 and the “systolic arterial blood pressure” value ([1]; 24 hr after administration, 0.3 mg/kg p.o.) was 195.3 ± 5.9. The “systolic arterial blood pressure” value ([1]; 24 hr after administration, 1.0 mg/kg p.o.) was 187.7 ± 7.5, the “systolic arterial blood pressure” value ([1]; before administration, 0.3 mg/kg p.o.) was 185.2 ± 5.4 and the “systolic arterial blood pressure” value [1, 10] was 193.0 ± 6.5. It also gave an inhibition in vivo at 1 mg/kg ([2]; 1 mg/kg oral) of 42.6%, an inhibition in vivo at 3 mg/kg ([2]; 3 mg/kg oral) of 39% and an inhibition in vivo at 10 mg/kg ([2]; 10 mg/kg oral) of 41.9%.
For `COC(=O)C1=C(C)NC(C)=C(C(=O)OC)C1c1ccccc1[N+](=O)[O-]` [Nifedipine, dimethyl 2,6-dimethyl-4-(2-nitrophenyl)-1,4-dihydropyridine-3,5-dicarboxylate], the “systolic arterial blood pressure” value [1, 3] was 139.3 ± 6.9, the “systolic arterial blood pressure” value ([1]; 0.5 hr after administration, 3.0 mg/kg p.o.) was 112.8 ± 6.0 and the “systolic arterial blood pressure” value [1, 4] was 161.3 ± 4.1. The “systolic arterial blood pressure” value ([1]; 1 hr after administration, 3.0 mg/kg p.o.) was 125.8 ± 4.4, the “systolic arterial blood pressure” value [1, 5] was 183.5 ± 10.0 and the “systolic arterial blood pressure” value ([1]; 2 hr after administration, 3.0 mg/kg p.o.) was 148.7 ± 9.9. For the same compound, the “systolic arterial blood pressure” value [1, 6] was 188.3 ± 5.8, the “systolic arterial blood pressure” value ([1]; 3 hr after administration, 3.0 mg/kg p.o.) was 176.8 ± 2.6 and the “systolic arterial blood pressure” value [1, 7] was 187.2 ± 5.3. The “systolic arterial blood pressure” value ([1]; 5 hr after administration, 3.0 mg/kg p.o.) was 183.8 ± 6.0, the “systolic arterial blood pressure” value [1, 8] was 190.9 ± 4.8 and the “systolic arterial blood pressure” value ([1]; 8 hr after administration, 3.0 mg/kg p.o.) was 188.5 ± 2.9. For the same compound, the “systolic arterial blood pressure” value [1, 9] was 190.3 ± 5.5, the “systolic arterial blood pressure” value ([1]; 12 hr after administration, 3.0 mg/kg p.o.) was 190.0 ± 7.0 and the “systolic arterial blood pressure” value [1, 10] was 194.8 ± 2.1. The “systolic arterial blood pressure” value ([1]; before administration, 3.0 mg/kg p.o.) was 189.0 ± 5.1.
